For assay [1], the system named is P. falciparum gametocytes (WT / Pfrh3- control). In words: Gametogenesis assay: rounding up, WT/control gametocytes. The format is cell-based, Plasmodium falciparum. The settings on record: for stimulation of rounding up: live gametocytes, zaprinast in absence of XA. As for the experimental part:
(§1) P. falciparum gametocytes were produced from the 3D7 clone in human A+ erythrocytes with 10% human serum (National Blood Service), and enriched using Nycodenz (Nycoprep 1.077; Axis-Shield) centrifugation as previously described. For gametogenesis, cells were resuspended at 5 × 10^6 parasites per millilitre and induced with either 20 μM XA or 25–400 μM zaprinast in complete medium, and a reduction (of >5 °C) in temperature. For gametogenesis assays, 10 min post induction, cells were mounted on a wet smear. […] Test reagents including zaprinast, BAPTA-AM, compound 1, and compound 2 were resuspended in DMSO as stock solutions and diluted in complete medium for gametogenesis assays, with the XA stock resuspended in RPMI 1640. The maximum final DMSO concentration in the gametogenesis medium was 0.4%, which was used as a negative control. […] Compound 1 and compound 2 were added at the point of activation with either XA or zaprinast, whereas cells were preincubated with 100 μM BAPTA-AM as previously described. Statistical multivariate analysis was carried out using Poisson regression (Stata 9.2; StataCorp) to compare the effects of genetic background (mutant vs. WT) and experimental replicate (included as categorical data in the analysis) on the rates of rounding up at individual drug concentrations. For each drug concentration, the mutants were tested separately against the WT control, and the resultant output was anti-logged to give the relative risk (and 95% confidence interval) for rounding up with genetic background.

Assay [2] relates to P. falciparum gametocytes. In words: Gametogenesis assay: exflagellation. It is filed as cell-based, Plasmodium falciparum. Conditions: for inhibition of exflagellation: gametocytes stimulated with XA or zaprinast. As for the experimental part: as §1
Assay [3] concerns native PDE activity in P. falciparum particulate fractions. Kind of assay: PDE assay: cGMP hydrolysis by native parasite particulate fractions. The format is biochemical, Plasmodium falciparum. Conditions: for IC50: cGMP substrate; for effect on native PDE enzyme activity: parasite particulate fractions. As for the experimental part:
PDE activity in native parasite fractions was measured using a modification of a previously published method. Parasites were frozen in liquid nitrogen and stored at −80 °C until use. Parasites were resuspended in 500 μl of lysis buffer (20 mM hepes and 250 mM sucrose [pH 7.0]), subjected to five cycles of freeze–thaw in liquid nitrogen and pelleted at 100,000 g for 30 min. Particulate fractions were resuspended in lysis buffer containing EDTA-free protease inhibitors (Roche). PDE assays were carried out in triplicate wells of a 96-well plate in the presence of [^3H]-labelled cGMP (GE Healthcare) for 30 min at 37 °C. Reactions were terminated by boiling the plate for 1 min, followed by a 3-min centrifugation at 900 g. One unit of alkaline phosphatase was added to each well and incubated for 30 min at 37 °C. [^3H]-labelled guanosine was separated from the radiolabelled cGMP substrate using ion exchange (BioRad AG 1 × 8 resin). Supernatants containing the [^3H]-labelled guanosine product were added to scintillation fluid (Optiphase Supermix; Wallac). Scintillation was measured using a Wallac 1450 Microbeta Liquid Scintillation Counter (Perkin Elmer) and PDE activity was expressed in picomoles cGMP/minute/milligram protein. Inhibition assays were carried out in the presence of compounds dissolved in DMSO. PDE assays for specific activity and IC50 determination were carried out at a native lysate dilution that gave 30% cGMP/cAMP hydrolysis.
Supplementary file pbio.0060139.st001.doc: Table S1 The Effect of PDE Inhibitors on Particulate Fractions Isolated from P. falciparum Sexual and Asexual Blood Stage Parasites IC50 values (the concentration of compound that gave 50% inhibition of native PDE activity) are mean ± SEM in micromolar and were calculated using the Prism software package (GraphPad Software). Percentage inhibition data were fitted to a sigmoidal dose-response curve using nonlinear regression. n.d., not determined; >200, sufficient inhibition was not observed for an IC50 calculation. The specific activity of cGMP hydrolysis measured in the individual life cycle stages (at a substrate concentration of 0.82 μM) is listed in the lower row. Specific activity data are mean ± SEM in picomoles cGMP/minute/milligram. (43 KB DOC) Click here for additional data file.

Assay [4] has as its system P. falciparum gametocytes. In words: Gamete emergence from erythrocytes, IFA with anti-Band 3 antibody. The format is cell-based, Plasmodium falciparum. The settings on record: pretreatment with BAPTA-AM. From the text: Figure 2 Intracellular Ca^2+ Is Not Required for the Initial Step of P. falciparum Gametogenesis To investigate the role of intracellular Ca^2+ in rounding up and exflagellation, stage V Pfrh3^− control gametocytes were pretreated with the BAPTA-AM (BP) before stimulation of gametogenesis with either XA or zaprinast (ZP). (A) (Upper panel) Gametocytes were scored as either round or crescent-shaped, and plotted as percentage rounded-up. […] (Lower panel) The number of centres of exflagellation per 10,000 gametocytes was scored. […] (B) Emergence from host erythrocytes before and after stimulation of gametogenesis with or without BAPTA-AM was scored using IFA with an anti-erythrocyte Band 3 monoclonal antibody. The proportion of cells not reacting with the antibody (indicative of complete emergence) was counted and plotted as a percentage.
For IFA, 3 × 10^6 mature P. falciparum gametocytes were fixed in paraformaldehyde according to a method used for P. berghei. Cells were washed thoroughly and allowed to settle on wells coated with 0.01% poly-L-lysine solution. […] Digital images were recorded using a side-mounted 1K 1.3M pixel High Sensitivity AMT Advantage ER CCD camera system.

Another assay relates to Eimeria. The settings on record: cited from earlier work.
Another assay concerns T. gondii. The settings on record: cited from earlier work.
The test system of another assay is PfPKGT618Q gametocytes. In words: Gametogenesis assay: rounding up, PfPKGT618Q gametocytes. The format is cell-based, Plasmodium falciparum. As for the experimental part: as §1
Supplementary file pbio.0060139.st002.doc: Table S2 Poisson Regression Analysis for Compound 1 Sensitivity of Rounding Up of Both Mutants Compared to WT Each rounding-up measurement was made by counting 200 cells and scoring for rounding up (or not rounding up). At each compound 1 concentration, rounding-up replicate counts for both clones were compared to WT values separately by Poisson regression analysis using the Stata 9.2 package (StataCorp). Where n < 2 (indicated by n.d.), data were excluded from the analysis. Compound 1 concentration (comp1) is shown in micromolar. The p-values from this analysis and the relative risk (RR) of rounding up with genetic background (and 95% confidence intervals [CI]) are shown. (38 KB DOC) Click here for additional data file.

The mark [5] stands for this setting: gametocyte particulate fraction, mean, read-out: IC50, inhibition of native PDE activity, Gametocyte.
Setting [6] is: ring particulate fraction, read-out: IC50, inhibition of native PDE activity, Ring.
[7] abbreviates: schizont particulate fraction, read-out: IC50, inhibition of native PDE activity, Schizont.

The structures appear in SMILES notation. Read-outs that look alike come from different tables or passages of the source.

For orientation: IC50 means the concentration at which inhibition is half-maximal. On to `CCCOc1ccccc1-c1nc2nn[nH]c2c(=O)[nH]1` [Zaprinast, zaprinast], for which the “stimulation of rounding up” value in assay [1] was “stimulated rounding up”. Besides, the “level of rounding up induced compared with XA” value in assay [1] (zaprinast 400 μM) is given as “almost equivalent to those triggered by XA”. Further, in assay [2] (in absence of XA), the stimulation of exflagellation result was “triggered both rounding up and exflagellation in a dose-dependent manner”. In assay [2] (zaprinast 400 μM), the “level of exflagellation induced compared with XA” value is “almost equivalent to those triggered by XA”. The values for the concentration for half-maximal inhibition (IC50) in assay [3] (setting [5]), in assay [3] (setting [6]) and in assay [3] (setting [7]) were 33.7 ± 1.3 µM, 3.5 µM and 3 ± 1.2 µM, respectively. For the same molecule, the “effect on native PDE enzyme activity” value in assay [3] is listed as “effective inhibitor”.
Regarding `Cn1c(=O)c2[nH]cnc2n(C)c1=O` [Theophylline], the IC50 in assay [3] (setting [5]) and in assay [3] (setting [7]) was greater than 200 µM in each case. Moreover, the “effect on native PDE enzyme activity” value in assay [3] is given as “little or no effect”.
On to `CC(C)Cn1c(=O)n(C)c(=O)c2[nH]cnc21` [IBMX], for which the IC50 in assay [3] (setting [5]), in assay [3] (setting [6]) and in assay [3] (setting [7]) was greater than 200 µM in each case. Also, the “effect on native PDE enzyme activity” value in assay [3] is listed as “little or no effect”.
As for `Cn1c(=O)c2c(ncn2C)n(C)c1=O` [Caffeine], the IC50 in assay [3] (setting [5]) and in assay [3] (setting [7]) was greater than 200 µM throughout. Besides, in assay [3], the “effect on native PDE enzyme activity” value is listed as “little or no effect”.
In the case of `COc1ccc(C2CNC(=O)C2)cc1OC1CCCC1` (stereo not drawn) [Rolipram], the IC50 in assay [3] (setting [5]), in assay [3] (setting [6]) and in assay [3] (setting [7]) was greater than 200 µM throughout.
Turning to `CCOC(=O)c1cnc2c(cnn2CC)c1NN=C(C)C` [Etazolate], the IC50 in assay [3] (setting [6]) is 20.7 µM; in assay [3] (setting [7]) it was 17.6 µM.
For `COc1cc2c(cc1OC)-c1c/c(=N\c3c(C)cc(C)cc3C)n(C)c(=O)n1CC2` [Trequinsin], the figures for the IC50 in assay [3] (setting [5]), in assay [3] (setting [6]) and in assay [3] (setting [7]) were 193 µM, 26.7 µM and 126 µM, respectively.
With `CC(=O)OCOC(=O)CN(CC(=O)OCOC(C)=O)c1ccccc1OCCOc1ccccc1N(CC(=O)OCOC(C)=O)CC(=O)OCOC(C)=O` [BAPTA-AM], the “emergence of gametes from erythrocytes” value in assay [4] is recorded as “reduced emergence of gametes from erythrocytes”. In addition, in assay [1] (control gametocytes stimulated with XA (or zaprinast)), the “inhibition of rounding up” value was “failed to inhibit the rounding up”. In assay [2], the inhibition of exflagellation result is “blocked exflagellation”.
As to `O=C(O)c1cc(O)c2cccc(O)c2n1` [XA, xanthurenic acid], the “stimulation of rounding up” value in assay [1] is reported as “became spherical”.
As for `OCCN(CCO)c1nc(N2CCCCC2)c2nc(N(CCO)CCO)nc(N3CCCCC3)c2n1` [Dipyridamole], the IC50 was greater than 200 µM in assay [3] (setting [5]), 6.5 µM in assay [3] (setting [6]) and 7 µM in assay [3] (setting [7]).
The like results for `CCCc1nn(C)c2c(=O)[nH]c(-c3cc(S(=O)(=O)N4CCN(C)CC4)ccc3OCC)nc12` [Sildenafil] were, in that order, 75.6 µM, 19.4 µM and 22.5 µM.
For the molecule `CN(C)Cc1ccn2c(-c3ccnc(N)n3)c(-c3ccc(F)cc3)nc2c1` [compound 2, 4-[7-[(dimethylamino)methyl]-2-(4-fluorophenyl)imidazo[1,2-a]pyridine-3-yl]pyrimidin-2-amine], the “effect on Eimeria infection in chickens” value with Eimeria is reported as “cure”. Further, in the assay with T. gondii, the “effect on infection by T. gondii in mice” value was “cure”. Besides, the inhibition of exflagellation entry in assay [2] is “inhibited exflagellation in a dose-dependent manner”. Besides, the “difference in sensitivity of exflagellation between control and PfPKGT618Q cell lines” value in assay [2] (unpublished data) is “no significant difference in sensitivity”. Further, the “inhibitory effects on rounding up of PfPKGT618Q gametocytes” value in the assay on PfPKGT618Q gametocytes (2 μM, stimulation with zaprinast or XA) is given as “absence of inhibitory effects”. The “lower sensitivity of PfPKGT618Q gametocytes than control cells (rounding up)” value in the assay with PfPKGT618Q gametocytes (range of inhibitor concentrations, approximately) was 10–20 fold.
`COc1ccc(Cc2nccc3cc(OC)c(OC)cc23)cc1OC` [Papaverine]: the IC50 in assay [3] (setting [5]) was greater than 200 µM; in assay [3] (setting [6]), 63.4 µM; in assay [3] (setting [7]), 173 µM.

(Values after article PMC2408617, “Gametogenesis in Malaria Parasites Is Mediated by the cGMP-Dependent Protein Kinase” (PLoS Biology, 2008).)
